Measurements published in patent US20250270200A1, “CTPS1 INHIBITORS AND USES THEREOF” (Nimbus Clotho, Inc., priority 2022, published 2025).
“And” between values parts separate entries of the source, which are not always exact repeats. Identical values can stand only once.

Target: T1, human CTPS1 (Homo sapiens, UniProt P17812)
T1 sequence (P17812 1-591): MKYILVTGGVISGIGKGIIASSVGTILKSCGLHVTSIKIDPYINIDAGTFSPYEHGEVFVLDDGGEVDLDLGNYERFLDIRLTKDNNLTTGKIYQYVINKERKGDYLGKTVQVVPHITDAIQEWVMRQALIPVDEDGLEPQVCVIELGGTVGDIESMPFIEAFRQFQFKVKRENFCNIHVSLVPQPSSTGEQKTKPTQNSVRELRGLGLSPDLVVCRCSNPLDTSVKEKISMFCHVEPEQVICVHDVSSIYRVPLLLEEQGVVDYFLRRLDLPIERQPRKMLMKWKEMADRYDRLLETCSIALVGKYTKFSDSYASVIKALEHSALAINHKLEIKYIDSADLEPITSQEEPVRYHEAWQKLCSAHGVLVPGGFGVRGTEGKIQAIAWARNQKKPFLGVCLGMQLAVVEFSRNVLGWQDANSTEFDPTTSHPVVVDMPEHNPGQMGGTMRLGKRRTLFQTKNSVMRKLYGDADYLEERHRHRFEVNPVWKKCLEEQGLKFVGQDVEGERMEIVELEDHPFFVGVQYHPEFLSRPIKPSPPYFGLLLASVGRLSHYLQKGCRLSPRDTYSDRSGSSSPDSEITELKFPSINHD
Test: ADP-Glo assay, human CTPS1 enzyme inhibition
Format: biochemical
Details: wild-type human CTPS1, 25 nM enzyme; ADP-Glo; read-out: ADP-Glo_WT_hCTPS1—25 nM_IC50 (IC50)
How it was run: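 Full-length tagged human CTPS1 (25 nM) pre-incubated 10 min at 25° C with compound, then 10 min with ATP (120 μM) and UTP (160 μM); reaction started with L-glutamine (100 μM) and GTP (60 μM), 1% DMSO, in HEPES pH 7.4, 10 mM Mg2+, 5 mM KCl, 2 mM DTT. Run within linear phase at 25° C; ADP measured by ADP-Glo luminescence.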

Row | Structure (SMILES) | IC50
1 | CCOc1cncc(-c2cnc(C(=O)NC(CC(C)(C)N(C)C)c3cc(NS(=O)(=O)C4CC4)ccn3)s2)n1 (stereo not drawn) [I-48, N-(1-(4-(cyclopropanesulfonamido)pyridin-2-yl)-3-(dimethylamino)-3-methylbutyl)-5-(6-ethoxypyrazin-2-yl)thiazole-2-carboxamide] | 5 to 25 nM
2 | CCOc1cncc(-c2cnc(C(=O)N[C@H](CN3C[C@H]4COC[C@H]4C3)c3cc(NS(=O)(=O)C4CC4)ccn3)s2)n1 (single isomer, unassigned) [I-31] | 5 to 25 nM
3 | CCOc1cncc(-c2cnc(C(=O)N[C@H](c3cc(NS(=O)(=O)C4CC4)ccn3)[C@@H](C)CO)s2)n1 [I-228, N-((1S,2R)-1-(4-(cyclopropanesulfonamido)pyridin-2-yl)-3-hydroxy-2-methylpropyl)-5-(6-ethoxypyrazin-2-yl)thiazole-2-carboxamide] | 5 to 25 nM
4 | CCOc1cncc(-c2cnc(C(=O)N[C@@H](CN3CCOCC3)c3cc(NS(=O)(=O)C4CC4)ncn3)s2)n1 [I-246, (S)-N-(1-(6-(cyclopropanesulfonamido)pyrimidin-4-yl)-2-morpholinoethyl)-5-(6-ethoxypyrazin-2-yl)thiazole-2-carboxamide] | 5 to 25 nM
5 | CCOc1cncc(-c2cnc(C(=O)N[C@H](c3cc(NS(=O)(=O)C4CC4)ccn3)[C@@H]3COCCO3)s2)n1 [I-74, N-((R)-(4-(cyclopropanesulfonamido)pyridin-2-yl)((R)-1,4-dioxan-2-yl)methyl)-5-(6-ethoxypyrazin-2-yl)thiazole-2-carboxamide] | 5 to 25 nM
6 | CCOc1cncc(-c2cnc(C(=O)N[C@H](c3cc(NS(=O)(=O)C4CC4)ccn3)[C@H]3CN(C)CCO3)s2)n1 [I-97, N-((R)-(4-(cyclopropanesulfonamido)pyridin-2-yl)((R)-4-methylmorpholin-2-yl)methyl)-5-(6-ethoxypyrazin-2-yl)thiazole-2-carboxamide] | 25 to 50 nM and 5 to 25 nM
7 | CCOc1cncc(-c2cnc(C(=O)N[C@H](CN3C[C@H]4CC[C@@H]3CO4)c3cc(NS(=O)(=O)C4CC4)ccn3)s2)n1 [I-124, N-((R)-2-((1R,4R)-2-oxa-5-azabicyclo[2.2.2]octan-5-yl)-1-(4-(cyclopropanesulfonamido)pyridin-2-yl)ethyl)-5-(6-ethoxypyrazin-2-yl)thiazole-2-carboxamide] | 25 to 50 nM
8 | CCOc1cncc(-c2cnc(C(=O)N[C@H](c3cc(NS(=O)(=O)C4CC4)ccn3)C(C)(C)O)s2)n1 [I-276, (R)-N-(1-(4-(cyclopropanesulfonamido)pyridin-2-yl)-2-hydroxy-2-methylpropyl)-5-(6-ethoxypyrazin-2-yl)thiazole-2-carboxamide] | 5 to 25 nM
9 | CCOc1cncc(-c2cnc(C(=O)N[C@@H](CCN3CCCCC3)c3cccc(NS(=O)(=O)C(F)F)c3)s2)n1 [I-183, (S)-N-(1-(3-((difluoromethyl)sulfonamido)phenyl)-3-(piperidin-1-yl)propyl)-5-(6-ethoxypyrazin-2-yl)thiazole-2-carboxamide] | > 100 nM
10 | CCOc1cncc(-c2cnc(C(=O)N[C@H](CCN3CCC(F)CC3)c3cc(NS(=O)(=O)C4CC4)ccn3)s2)n1 (single isomer, unassigned) [I-16] | 5 to 25 nM
11 | CCOc1cncc(-c2cnc(C(=O)N[C@@H](c3cc(NS(=O)(=O)C4CC4)ccn3)[C@@H](C)N3C[C@H]4C[C@@H]3CO4)s2)n1 [I-169, N-((1R,2R)-2-((1R,4R)-2-oxa-5-azabicyclo[2.2.1]heptan-5-yl)-1-(4-(cyclopropanesulfonamido)pyridin-2-yl)propyl)-5-(6-ethoxypyrazin-2-yl)thiazole-2-carboxamide] | 25 to 50 nM
12 | CCOc1cncc(-c2cnc(C(=O)N[C@H](c3cc(NS(=O)(=O)C4CC4)ccn3)[C@H]3COCCO3)s2)n1 [I-73, N-((R)-(4-(cyclopropanesulfonamido)pyridin-2-yl)((S)-1,4-dioxan-2-yl)methyl)-5-(6-ethoxypyrazin-2-yl)thiazole-2-carboxamide] | 5 to 25 nM
